PubChem BioAssay AID651630 (Sanford-Burnham Center for Chemical Genomics, 2012)
Activity calls are given as the source filed them.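 The calls were made as follows: active = lipid-stain IC50 at or below a set limit, with nuclear-stain toxicity IC50 at least five times higher; inactive = the rest.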

Assays:
DAPI = assay: TAG lipid buildup inhibition with viability readout – cell-based, panel, Nile Red and DAPI fluorescence, H9c2, dose response (AID 651630); conditions: H9c2 cells, DAPI nuclear fluorescence (cytotoxicity counter-readout), oleic acid;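 also: cells exposed to compound overnight before fixation and staining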
TAG = assay: as above; conditions: H9c2 cells, Nile Red TAG fluorescence, oleic acid

SMILES | IC50 cytotoxicity (DAPI nuclear signal decrease) (DAPI; mean of runs) | IC50 cytotoxicity (DAPI nuclear signal decrease) (DAPI; run 1) [µM] | IC50 cytotoxicity (DAPI nuclear signal decrease) (DAPI; run 2) [µM] | IC50 (TAG; mean of runs) | IC50 (TAG; run 1) [µM] | IC50 (TAG; run 2) [µM]
Cc1ccc(CC2(OCCN(C)C)CCC(C(C)(C)C)CC2)cc1 (stereo not given) | 23.5 µM (inactive) | 23.2 | 23.8 | > 25 µM (inactive) | > 25 | > 25
O=C(Nc1cccc(-c2csc(Nc3ccc(Cl)cc3)n2)c1)c1cc([N+](=O)[O-])cc(C(F)(F)F)c1 | > 25 µM (inactive) | > 25 | > 25 | 13.9 µM | 13.4 | 14.4
CCN(CC(=O)Nc1ccc(C(=O)Nc2ccc(OC)cc2)cc1)Cc1nc2ccccc2c(=O)[nH]1 | > 25 µM (inactive) | > 25 | > 25 | > 25 µM (inactive) | > 25 | > 25
Cc1ccccc1OCCNc1cc(N2CC(C)NC(C)C2)ccc1[N+](=O)[O-] (stereo not given) | > 25 µM (inactive) | > 25 | > 25 | 13.1 µM | 14.6 | 11.6
COc1cc([C@@H]2c3cc4c(cc3[C@H](O)[C@H]3COC(=O)[C@H]23)OCO4)cc(OC)c1OC | > 25 µM (inactive) | > 25 | > 25 | > 25 µM (inactive) | > 25 | > 25
CCOc1ccccc1NC(=O)C1CCN(C(=O)NCc2ccccc2)CC1 | > 25 µM (inactive) | > 25 | > 25 | > 25 µM (inactive) | > 25 | > 25
COCCCNC(=O)C(=O)Nc1ccc2c(c1)N(S(=O)(=O)c1cccs1)CCC2 | > 25 µM (inactive) | > 25 | > 25 | – | 7.64 | > 25
CCOc1cc(C(=O)N/N=C/c2cn(-c3ccccc3)nc2-c2cc3ccccc3o2)cc(OCC)c1OCC | > 25 µM (inactive) | > 25 | > 25 | 10.2 µM | 9.28 | 11.2
COc1ccc(CC(=O)Nc2ccc(-c3ccc4nnc(C)n4n3)cc2)cc1OC | > 25 µM (inactive) | > 25 | > 25 | 16.5 µM (inactive) | 15.2 | 17.8
Cc1nc(N/N=C/c2cccc(F)c2)cc(N2CCOCC2)n1 | > 25 µM (inactive) | > 25 | > 25 | 13.8 µM | 10.9 | 16.6
COc1ccc(Nc2oc(-c3ccc(Cl)cc3)nc2C#N)cc1 | > 25 µM (inactive) | > 25 | > 25 | – | 17.9 | > 25
CCN(CC)CCC(c1ccc2c(c1)OCO2)c1c(OC)cc(OC)c2c(-c3ccccc3)cc(=O)oc12 (stereo not given) | > 25 µM (inactive) | > 25 | > 25 | > 25 µM (inactive) | > 25 | > 25
